Earlier results as cited in US20060116331A1, “Glycosylceramide analogues” (BIOMIRA, INC., priority 2002, published 2006).
“Also recorded” adds a separate entry of the source.

Key:
[1] = system: Vα14 NKT cells; conditions: for CD1d-restricted, TCR-mediated activation of Vα14 NKT cells (ability to elicit natural killer cell activity): Kawano et al. (1997); for stimulation of Vα14 NKT cells: structure-activity relationship studies
[2] = system: NKT cells
[3] = system: spleen cells; conditions: Ijima et al. (1998)

Row | Molecule | CD1d-restricted, TCR-mediated activation of Vα14 NKT cells (ability to elicit natural killer cell activity) [1] | also measured
1 | Galα1-4Glcβ1-1′Cer | inactive | 
2 | Galβ1-3Galα1-1′Cer | active | 
3 | CCCCCCCCCCCCCCCCCCCCCCCC(=O)N[C@@H](CO[C@H]1O[C@H](CO)[C@H](O)[C@H](O)[C@H]1O)[C@H](O)[C@H](O)CCCCC [OCH] |  | Th1/Th2 bias [2]: induces Th2 bias
4 | α-mannosylceramide [α-ManCer] | inactive | stimulation of Vα14 NKT cells [1]: failed to stimulate
5 | Galα1-2Galα1-1′Cer | active | 
6 | CCCCCCCCCCCCCCC[C@@H](O)[C@H](CO[C@H]1O[C@H](CO)[C@@H](O)[C@H](O)[C@H]1O)NC(=O)CCCCCCCCCCCCC [AGL-563] |  | MLR activity (stimulation of spleen cell proliferation by pretreated DCs) [3]: reduced, but did not abolish, activity
7 | Galα1-6Galα1-1′Cer | active | 
8 | α-glucosylceramide [α-GlcCer] | active | stimulation of Vα14 NKT cells [1]: readily stimulate
9 | CCCCCCCCCCCCCCCCCCCCCCCCCC(=O)N[C@@H](CO[C@H]1O[C@H](CO)[C@H](O)[C@H](O)[C@H]1O)[C@H](O)[C@H](O)CCCCCCCCCCCCCC [α-GalCer, α-galactosylceramide] | active; also recorded: most active | Th1/Th2 bias [2]: unbiased
10 | ceramide | inactive | 
11 | CCCCCCCCCCCCCCC[C@@H](O)[C@H](CO[C@H]1O[C@H](CO)[C@H](O)[C@H](O)[C@H]1O)NC(=O)CCCCCCCCCCCCC [AGL-517] |  | MLR activity (stimulation of spleen cell proliferation by pretreated DCs) [3]: active
12 | Galα1-6Glcα1-1′Cer | active | 
13 | 3,4-deoxy α-GalCer | active | 
